Reference: patent US5532234A, “Use of 1-[4-[4-aryl (or heteroaryl)-1-piperazinyl]-butyl)-1H-azole derivatives for the preparation of medicaments intended for the treatment of disorders of gastric secretion” (Laboratories Del Dr. Esteve, S.A., priority 1993, dated 1996)
Where two headings read alike, the source gives them in different places.

Tested on: gastric acid secretion
Assay: Inhibitory activity on gastric acid secretion, Shay Method (pylorus-ligated rats)
Type: in vivo, male Wistar rats
Details: Rattus norvegicus, 2 h; for ED50: read-out: ED50 (inhibition of gastric acid secretion); for inhibition in vivo at 40 mg/kg: intraduodenal, read-out: Percentage of inhibition of gastric acid secretion
Excerpt: Inhibitory activity on gastric acid secretion, Shay Method [Shay, H., Komarov, S. A., Fels, S. S., Merange, D., Grvenstein, M., Siplet, H.: Gastroenterology, 5, 43 (1945)--Visscher, F. E., Seay, P. H., Taxelaar, A. P., Veldhamp, W., Vander Brook, M. J.: J. Pharmac. Exp. Ther., 110, 188 (1954)--"Animal Experiments in Pharmacological Analysis", F. R. Domer; C. C. Thomas Pub, Springfield, Ill., USA, 1970, p. 140].
In this test, male Wistar rats weighing 200 to 250 grams are used, which rats are denied food from the day prior to that of the test, with free access to water. Batches which each contain at least 4 animals are used.
The rats are anesthetized with ethyl ether, a laparotomy is carried out on them and their pylori are ligatured, and then the abdominal incision is stitched up. Administration of the products, with the vehicle for the control batch, is carried out intraduodenally (i.d.) before stitching up the abdominal incision. The dose administered for the first test is 40 mg/kg and the 50% effective dose (ED50) by the i.d. route is also determined in a second test. The vehicle used is 5% w/v gum arabic in doubly-distilled water.
Two hours after ligaturing the pylorus, the rats are sacrificed by prolonged anesthesia with ethyl ether and the volume of the gastric juice is measured and the total acidity is determined using a pH meter equipped with an automatic burette. The percentage of inhibition of the gastric acid secretion is determined, with respect to the control batch, for each product and for each dose tested.
The results obtained for some of the derivatives of the present invention are summarized, as non-limiting examples, in Table II.

[1] = i.d. route, rats, Shay Method, two hours after pylorus ligature
[2] = Dose = 40 mg/kg, i.d. route, rats, Shay Method, two hours after pylorus ligature

SMILES	ED50 [1]	inhibition in vivo at 40 mg/kg [2]	ED50	inhibition in vivo at 40 mg/kg
c1ccc(-c2cn(CCCCN3CCN(c4ncccn4)CC3)cn2)cc1 [Example 15]	36 mg/kg	53%		
COc1cccc(N2CCN(CCCCn3cc(Cl)cn3)CC2)c1 [Example 64]	20 mg/kg	68%		
c1ccc(-c2cnn(CCCCN3CCN(c4ncccn4)CC3)c2)cc1 [Example 47]	11 mg/kg	88%		
c1cnc(N2CCN(CCCCn3cccn3)CC2)nc1 [Example 25]	21 mg/kg	85%		
Cc1cc(-c2ccccc2)n(CCCCN2CCN(c3ncccn3)CC2)n1 [Example 34]	50 mg/kg	45%		
CCS(=O)(=O)Nc1cnn(CCCCN2CCN(c3ncccn3)CC2)c1 [Example 53]	6.4 mg/kg	90%		
c1cnc(N2CCN(CCCCn3cccc3)CC2)nc1 [Example 1]	12 mg/kg	90%		
Cc1nn(CCCCN2CCN(c3ncccn3)CC2)c(C)c1[N+](=O)[O-] [Example 27]	17 mg/kg	63%		
COc1ccccc1N1CCN(CCCCn2cc(Cl)cn2)CC1 [Example 62]	13 mg/kg	81%		
Brc1cnn(CCCCN2CCN(c3ncccn3)CC2)c1 [Example 35]	11 mg/kg	64%		
Cc1nc(Cl)c(Cl)n1CCCCN1CCN(c2cccc(C(F)(F)F)c2)CC1 [Example 76]	2.1 mg/kg	96%		
c1cnc(N2CCN(CCCCn3ccc4ccccc43)CC2)nc1 [Example 3]	30 mg/kg	63%		
c1ccc(N2CCN(CCCCn3cccc3)CC2)cc1 [Example 67]	8.7 mg/kg	90%		
c1ccc(-c2ccc(-c3cnn(CCCCN4CCN(c5ncccn5)CC4)c3)cc2)cc1 [Example 45]	12 mg/kg	74%		
Clc1ncn(CCCCN2CCN(c3ncccn3)CC2)c1Cl [Example 59]	20 mg/kg	75%		
c1cnc(N2CCN(CCCCn3nnc4ccccc43)CC2)nc1 [Example 19]	42 mg/kg	49%		
c1cnc(N2CCN(CCCCn3cnc4cccnc43)CC2)nc1 [Example 17]	19 mg/kg	63%		
c1cnc(N2CCN(CCCCn3nc4ccccc4n3)CC2)nc1 [Example 22]	34 mg/kg	55%		
COc1ccccc1N1CCN(CCCCn2c(C)nc(Cl)c2Cl)CC1 [Example 63]	10 mg/kg	89%		
c1ccc2c(N3CCN(CCCCn4cncn4)CC3)nsc2c1 [Example 81]	5.2 mg/kg	82%		
Cc1nc(Cl)c(Cl)n1CCCCN1CCN(c2ccccc2)CC1 [Example 69]	7.6 mg/kg	71%		
Cc1cc(C(F)(F)F)n(CCCCN2CCN(c3ncccn3)CC2)n1 [Example 7]	47 mg/kg	40%		
N#Cc1cnn(CCCCN2CCN(c3ncccn3)CC2)c1 [Example 36]	2.1 mg/kg	78%		
FC(F)(F)c1cccc(N2CCN(CCCCn3cc(Cl)cn3)CC2)c1 [Example 77]	9.2 mg/kg	82%		
c1cnc(N2CCN(CCCCn3cnc4ccccc43)CC2)nc1 [Example 16]	25 mg/kg	71%		
Cc1cc2ncn(CCCCN3CCN(c4ncccn4)CC3)c2cc1C [Example 24]	36 mg/kg	59%		
Cc1nc(Cl)c(Cl)n1CCCCN1CCN(c2ncccn2)CC1 [Example 11]	14 mg/kg	81%		
c1cnc(N2CCN(CCCCn3ncc4ccccc43)CC2)nc1 [Example 29]	21 mg/kg	81%		

SMILES	ED50 [1]	inhibition in vivo at 40 mg/kg [2]	ED50	inhibition in vivo at 40 mg/kg
Cc1nc(Cl)c(Cl)n1CCCCN1CCN(c2nsc3ccccc23)CC1 [Example 80]	7.1 mg/kg	88%		
COc1ccccc1N1CCN(CCCCn2cccc2)CC1 [Example 66]	27 mg/kg	65%		
Cc1nc(Cl)c(Cl)n1CCCCN1CCN(c2ccccc2Cl)CC1 [Example 71]	9.1 mg/kg	73%		
Clc1cnn(CCCCN2CCN(c3ccccc3)CC2)c1 [Example 68]	13 mg/kg	94%		
Fc1ccccc1N1CCN(CCCCn2cc(Cl)cn2)CC1 [Example 78]	10 mg/kg	87%		
COc1ccc(N2CCN(CCCCn3cc(Cl)cn3)CC2)cc1 [Example 60]	26 mg/kg	63%		
COc1ccc(-c2cnn(CCCCN3CCN(c4ncccn4)CC3)c2)cc1 [Example 44]	31 mg/kg	81%		
Clc1cnn(CCCCN2CCN(c3ncccn3)CC2)c1 [Example 32]	15 mg/kg	78%		
N#Cc1ccccc1N1CCN(CCCCn2cc(Cl)cn2)CC1 [Example 75]	8.4 mg/kg	94%		
c1ccc(-c2nc(-c3ccccc3)n(CCCCN3CCN(c4ncccn4)CC3)c2-c2ccccc2)cc1 [Example 9]	45 mg/kg	35%		
CCCS(=O)(=O)Nc1cnn(CCCCN2CCN(c3ncccn3)CC2)c1 [Example 52]	40 mg/kg	54%		
c1cnc(N2CCN(CCCCn3cc(-n4cccc4)cn3)CC2)nc1 [Example 46]	9.5 mg/kg	92%		
Cc1nc(Cl)c(Cl)n1CCCCN1CCN(c2ccccc2F)CC1 [Example 74]	5 mg/kg	94%		
COc1ccc(N2CCN(CCCCn3c(C)nc(Cl)c3Cl)CC2)cc1 [Example 61]	13 mg/kg	86%		
c1ccc2c(c1)ncn2CCCCN1CCN(c2nsc3ccccc23)CC1 [Example 82]	15 mg/kg	53%		
Cc1nc(Cl)c(Cl)n1CCCCN1CCN(c2ccccc2C#N)CC1 [Example 73]	4.2 mg/kg	90%		
c1cnc(N2CCN(CCCCn3cncn3)CC2)nc1 [Example 21]	4.4 mg/kg	71%		
CCc1nccn1CCCCN1CCN(c2ncccn2)CC1 [Example 12]	52 mg/kg	37%		
CN/C(=N/CCSCc1nc[nH]c1C)NC#N [Cimetidine, reference compound]			11.5 mg/kg	69%
Cc1nc(-c2ccccc2)c(-c2ccccc2)n1CCCCN1CCN(c2ncccn2)CC1 [Example 10]	19 mg/kg	81%		
c1cnc(N2CCN(CCCCn3c4ccccc4c4ccccc43)CC2)nc1 [Example 2]	46 mg/kg	44%		
O=C(O)c1cnn(CCCCN2CCN(c3ncccn3)CC2)c1 [Example 6]	52 mg/kg	41%		
Fc1cnn(CCCCN2CCN(c3ncccn3)CC2)c1 [Example 37]	17 mg/kg	79%		
O=[N+]([O-])c1cnn(CCCCN2CCN(c3ncccn3)CC2)c1 [Example 31]	2.7 mg/kg	90%		
Clc1cnn(CCCCN2CCN(c3nsc4ccccc34)CC2)c1 [Example 79]	20 mg/kg	82%		
c1ccc(-c2nccn2CCCCN2CCN(c3ncccn3)CC2)cc1 [Example 13]	45 mg/kg	44%		
Clc1cccc(N2CCN(CCCCn3cc(Cl)cn3)CC2)c1 [Example 72]	21 mg/kg	88%		
